Test results reported in patent publication US20210121482A1, “WITHANOLIDES FOR THE TREATMENT OF CACHEXIA” (University of Louisville Research Foundation, Inc., priority 2019, published 2021).

Assays:
[1] = test system: CAOV3; conditions: CAOV3 cells; cited from earlier work
[2] = test system: SKOV3; conditions: SKOV3 cells; cited from earlier work
[3] = test system: A2780 ovarian cancer cells; assay: Tumor burden: free peritoneal tumors and bilateral ovaries (Example 3); assay type: in vivo, mice; conditions: tumor-bearing
Excerpt: Experimental tumors were induced as described in Example 2.
No significant difference in tumor weight between the two doses of WFA was observed (p=0.65).
The IP tumors were metastasized to select organs/anatomic regions known to be highly estrogen-responsive, including free-peritoneal tumors shown in FIG. 19D and bilateral ovaries shown in FIG. 19E.

[4] = test system: TA, GA and QF muscles; assay: Skeletal muscle weight and myofiber CSA (Example 1); assay type: in vivo, mice
Excerpt: Histology and Morphometric Analysis of Skeletal Muscle: The tibialis anterior (TA), gastrocnemius (GA) and quadriceps femoris (QF) of the mice were isolated, flash frozen in liquid nitrogen, mounted in OCT embedding medium, and then sectioned using a microtome cryostat. To assess tissue morphology, 10 μm thick transverse sections were cut from the mid-belly of the muscle and then subjected to hematoxylin and eosin (H&E) staining. Images of H&E-stained TA/GA/QF muscle sections were quantified using Image J and/or Fiji software to measure myofiber cross-sectional area (CSA). Myofiber CSA was calculated by analyzing ˜350-500 myofibers per muscle.

[5] = test system: poly-ubiquitinated proteins; assay: Immunoblot for poly-ubiquitinated proteins; assay type: in vivo, mice; conditions: WFA treatment, 2 and 4 mg/kg
Description: (§1) Protein Extraction and Western Blotting: Quadriceps femoris (QF) samples were homogenized in chilled RIPA buffer (Sigma) supplemented with a Complete Mini Protease Inhibitor tablet (Roche Molecular Biochemicals, Indianapolis, Ind.). Tissue lysates were centrifuged at 10,000 RPM and the supernatants were collected. Protein concentration for each sample was determined using the Bradford reagent method (Bio-Rad), according to manufacturer's instructions. Protein lysates (50 μg) were separated on 10% SDS-PAGE gels at 100 volts for 2 h. The proteins were transferred to nitrocellulose membranes at 100 volts for 90 minutes. The membranes were blocked with 5% non-fat milk in Tris Buffered Saline supplemented with Tween-20 (0.5%; TBS-T) for 30-60 minutes. The membranes were then washed 3 times with TBS-T for 5 minutes. The membranes were then incubated with primary antibody at 4° C. overnight. The membranes were washed 3 times with TBS-T for 5 minutes each followed by incubation in TBS-T containing horseradish peroxidase conjugated secondary antibody (1:2000 dilution) for 1 h. The membranes were rinsed 3 times with TBS-T for 5 minutes each. Visualization of immunoreactive bands was enhanced using chemiluminescence reagents (Sigma). […]

[6] = test system: Ang II; assay: Plasma Ang II ELISA; assay type: in vivo, mice; conditions: tumor-bearing
Description: Plasma Ang II levels were measured with an enzyme-linked immunosorbent assay (ELISA). Blood samples were collected in tubes containing ethylenediaminetetraacetic acid (EDTA) (25 mM), o-phenanthroline (0.44 mM), pepstatin A (0.12 mM), and p-hydroxymercuribenzoic acid (1 mM) and then centrifuged at 1200×g for 10 min. The plasma was collected and stored at −80° C. until further processing. Ang II levels were quantified by using a commercially available ELISA kit according to the manufacturer's instructions (Sigma-Aldrich Catalog #MAK190).

[7] = test system: phospho-p65 (NF-κB); assay: Western blot and IHC of p65 in tumor samples; assay type: in vivo, mice; conditions: 2 and 6 mg/kg
Description: Immunohistochemistry of Tumor Tissue: For the detection of various proteins, 10 μm thick sections were made from the midsection of tumor samples. A hydrophobic boundary was drawn around the sections and then they were fixed in 3.7% formaldehyde solution for 10 minutes. The slides were washed three times with 1×PBS for 5 minutes each. The sections were then blocked in 2% BSA in PBS for 30 minutes. The sections were then incubated with primary antibodies (1:100 dilution) overnight in a humidity chamber at 4° C. The sections were then washed three times with 1×PBS for 5 minutes. The slides were incubated in appropriate secondary antibodies (1:2000 dilution) for 45-60 minutes. Sections were counterstained with DAPI (1:2500 dilution) for 5 minutes to visualize nuclei. Slides were then washed twice in 1×PBS for 5 minutes, and then mounted for visualization. Nonspecific background staining was determined by performing the above protocol with omitting the inclusion of the primary antibodies. Refer to Table 2 for a complete list of antibodies utilized.
as §1, with “Tumor” for “Quadriceps femoris (QF)”, “[…])” for “μg)”, “Tris-buffered saline” for “Tris Buffered Saline”, “Tween®20” for “Tween-20”, “overnight.” for “overnight. The membranes were washed 3 times with TBS-T for 5 minutes each followed by incubation in TBS-T containing horseradish peroxidase conjugated secondary antibody (1:2000 dilution) for 1 h. The membranes were rinsed 3 times with TBS-T for 5 minutes each. Visualization of immunoreactive bands was enhanced using chemiluminescence reagents (Sigma).”

[8] = 2 and 6 mg/kg, vs control group
[9] = 2 and 6 mg/kg, vs vehicle treated group

CC1=C(CO)C(=O)O[C@@H]([C@@H](C)[C@H]2CC[C@H]3[C@@H]4C[C@H]5O[C@]56[C@@H](O)C=CC(=O)[C@]6(C)[C@H]4CC[C@]23C)C1 [WFA, (4β,5β,6β,22R)-4,27-Dihydroxy-5,6:22,26-diepoxyergosta-2,24-diene-1,26-dione]
cell cycle arrest and apoptosis [1]: induces cell cycle arrest and the induction of apoptosis | cell cycle arrest and apoptosis [2]: induces cell cycle arrest and the induction of apoptosis | normalized weights of the bilateral ovaries ([3]; WFA 2 mg/kg): 10.38±1.32 mg/g IBW | weight of visible tumors ([3]; WFA 2 mg/kg): 1.6 ± 0.19 g | normalized weights of the bilateral ovaries ([3]; WFA 4 mg/kg): 12.05±2.09 mg/g IBW | weight of visible tumors ([3]; WFA 4 mg/kg): 1.9 ± 0.35 g | normalized wet weight of gastrocnemius (GA) ([4]; 2 mg/kg, vs control group): significant reduction in normalized wet weight | myofibrillar CSA in GA muscle ([4]; 2 mg/kg, vs control group (p=0.09)): restoration of myofibrillar CSA | wet weight of quadriceps femoris (QF) ([4]; 6 mg/kg, vs control group): significant reduction in wet weight | restoration of myofibrillar CSA in GA muscle ([4]; 6 mg/kg, vs control group (p=0.007)): not those treated with 6 mg/kg of WFA | average myofiber CSA (TA and QF) [4, 8]: significant reduction in average myofiber CSA | normalized wet weight of tibialis anterior (TA) [4, 8]: significant reduction in normalized wet weight | average myofiber CSA (TA, GA, QF) [4, 9]: significantly greater than the vehicle treated group | normalized muscle weights (TA, GA, QF) [4, 9]: no difference between the vehicle and WFA treated groups | pan-ubiquitination of proteins (immunoblot) [5]: reduced in response to WFA treatment | plasma Ang II levels ([6]; WFA 2 mg/kg): 2.15 ± 0.015 ng/mL | plasma Ang II levels ([6]; WFA 4 mg/kg): 2.07 ± 0.08 ng/mL | phospho-p65 co-localized with DAPI (nuclear translocation) [7]: impairment in the translocation of p65 to the nucleus | phospho-p65 staining in tumor cells (IHC) ([7]; vs vehicle treated group): severely diminished | protein levels of phospho- and total p65 in tumor (immunoblot) ([7]; vs vehicle treated group): robust decrease in the protein levels of phospho- and total p65
